Patent US20190351031A1, “METHODS OF SELECTING SUBJECTS FOR COMBINATION CANCER THERAPY WITH A POLYMER-CONJUGATED SOLUBLE PH20” (HALOZYME, INC., priority 2018, published 2019)

How the values were obtained:
B16 melanoma model = conditions: oral 600 mg/kg/d (Yoshihara et al. 2005); cited from earlier work
[1] = route: IV or PO; cited from earlier work
cytidine deaminase = target: T1, cytidine deaminase (Homo sapiens, UniProt P32320); conditions: cited from earlier work
T1 construct: for the enzyme purified from human liver; host or cells: human liver
T1 sequence (P32320 whole entry): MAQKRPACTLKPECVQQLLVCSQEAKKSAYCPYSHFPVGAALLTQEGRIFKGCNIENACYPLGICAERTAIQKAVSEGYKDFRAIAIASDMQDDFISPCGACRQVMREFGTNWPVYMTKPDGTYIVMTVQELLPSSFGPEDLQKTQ

pancreatic cancer = conditions: gemcitabine monotherapy (Burris et al. 1997); cited from earlier work
[2] = in vivo; cited from earlier work
[3] = system: carbohydrate antigen 19-9 (CA19-9); experiment: Serum CA19-9 tumor biomarker ELISA in BxPC-3 xenograft model; type: in vivo, mouse; conditions: day 20 of first dosing cycle
Method: C. Measurement of Tumor Biomarkers Biomarkers carbohydrate antigen 19-9 (CA19-9) and carcinoembryonic antigen (CEA) associated with pancreatic cancer were tested to measure therapeutic response. Animals were treated as described in part A. Serum was collected from satellite animals ([…]) from each group on day 0, 6, 13 and 20 of the first dosing cycle. Human CA19-9 was measured using a CA 19-9 ELISA kit (Catalog No. CA199T, Calbiotech, Spring Valley, Calif.) and CEA tumor antigen was measured using a CEA ELISA kit (Catalog No. CE062T, Calbiotech, Spring Valley, Calif.).

[4] = system: BxPC3 pancreatic cancer cell line; experiment: Median survival time (time to survival endpoint) in BxPC-3 xenograft model; type: in vivo, mouse; conditions: three 4-week dosing cycles; PEGPH20 4.5, nab-paclitaxel 10 mg/kg, gemcitabine 180 mg/kg
Method: Following the first four week dosing cycle as set forth in part A, the dosing cycle was repeated two times and time to survival endpoint was followed over time. Briefly, in each dosing cycle, animals were treated with vehicle or PEGPH20 ([…]) with or without nab-paclitaxel (10 mg/kg) intravenously twice a week for four weeks. In each cycle, groups receiving gemcitabine were administered gemcitabine (180 mg/kg) 24 hours after PEGPH20 and/or nab-paclitaxel every 7 days for three weeks of the dose cycle. Time to survival endpoint, a measure of animal survival, was defined as (a) time to tumor volume of greater than 2000 mm^3, (b) time to a greater than 20% bodyweight loss, or (c) time to animal duress or death.

[5] = system: BxPC3 pancreatic cancer cell line; experiment: Tumor growth inhibition in BxPC-3 human pancreatic tumor xenograft model; type: in vivo, mouse; conditions: gemcitabine 60, 120, 180 and 240 mg/kg once a week, day 0, 7, 14, 21
Method: Tumor cells from the BxPC3 pancreatic cancer cell line (American Tissue Culture Collection (ATCC) CRL-1687) were grown to approximately 80% confluency, trypsinized, collected, washed once in HBSS (Hank's balance salt solution, Mediatech Inc.). Prior to inoculation, cells were washed twice with sterile HBSS, counted using a Nexcelom Cellometer (Nexcelom Bioscience; Lawrence, Mass.) automated counting device which determines cell concentration and viability via Trypan Blue exclusion and diluted with HBSS to a concentration of 1×10^8 cells/mL on ice before inoculation into animals. Male nude mice (Athymic NCr nu/nu mice, Taconic Laboratories, Inc.) approximately 6 weeks old, were inoculated intramuscularly (IM) with 0.05 mL of cell suspension, peritibially, in the left hind leg (adjacent to the tibia periosteum). The tumors in the animals were assessed twice a week and allowed to grow to a mean tumor volume of approximately 350-400 mm^3. Actual tumor volumes were determined using VisualSonics Vevo 770 high-resolution ultrasound (VisulaSonics Inc.; Toronto, Ontario, Canada). […]
The tumor volumes of all mice were measured by capturing images using the VisualSonics ultrasound system 2 times per week. Tumor volume was calculated using a 3D-mode imaging software program (VisualSonics® Vevo 770®, v 3.0.0). The percent tumor growth inhibition (% TGI) was calculated by the following equation: […]

SMILES: Cc1cc(=O)oc2cc(O)ccc12 [4-MU, 7-hydroxy-4-methylcoumarin]
- reduction of metastases (B16 melanoma model): 64%

SMILES: C[C@]12CCC(=O)C=C1CC[C@@H]1[C@@H]2[C@@H](O)C[C@@]2(C)[C@H]1CC[C@]2(O)C(=O)CO [Hydrocortisone]
- Equivalent Potency [1]: 20 mg

SMILES: C[C@H]1C[C@@H]2[C@H]([C@@H](O)C[C@@]3(C)[C@H]2CC[C@]3(O)C(=O)COC(=O)CCC(=O)O)[C@@]2(C)C=CC(=O)C=C12 [Methylprednisolone sodium succinate]
- Equivalent Potency [1]: 4 mg

SMILES: C[C@]12C=CC(=O)C=C1CC[C@@H]1[C@@H]2[C@@H](O)C[C@@]2(C)[C@H]1CC[C@]2(O)C(=O)CO [Prednisolone]
- Equivalent Potency [1]: 5 mg

SMILES: Nc1ccn([C@H]2C[C@H](O)[C@@H](CO)O2)c(=O)n1 [deoxycytidine]
- rate of deamination relative to decitabine at equal concentrations (cytidine deaminase): about 6 fold

SMILES: Nc1ccn([C@@H]2O[C@H](CO)[C@@H](O)C2(F)F)c(=O)n1 [gemcitabine, 2′,2′-difluorodeoxycytidine]
- median survival (pancreatic cancer): over 5 months
- half-life in plasma [2]: approximately 10 minutes
- level of CA19-9 marker in serum [3]: approximately similar to vehicle only control
- Median Survival Time [4]: 38 days
- tumor growth compared to vehicle only [5]: inhibited tumor growth at all doses tested
